# Laboratory results reported in patent US9861616B2, “Methods for treating respiratory diseases and formulations therefor” (priority 2013, dated 2018).
# Read-outs that look alike come from different tables or passages of the source.
# What was measured:
# IL-8 (CXCL8) release = experiment: LPS-induced IL-8 (CXCL8) release in PMA-differentiated U937 cells (ELISA); assay type: cell-based, human
# Protocol: Effects of macrolides on lipopolysaccharide (LPS)-induced CXCL8 release in PMA-differentiated U937 cells. […] LPS-induced CXCL8 release was evaluated by ELISA. Values represent means of three experiments±SEM. ^##p<0.01 (vs. non-treatment control), *p<0.05, **p<0.01 (vs. treatment with LPS only).
# The human monocytic cell line U937 was obtained from the American Type Culture Collection (ATCC, Rockville, Md.). PBMCs from COPD patients were obtained from Brompton hospital and separated by AccuSPIN (Sigma-Aldrich). Cells were cultured in complete growth medium (RPMI 1640) (Sigma-Aldrich) supplemented with 10% fetal bovine serum (FBS) and 1% L-glutamine at 37° C. in a humidified atmosphere with 5% CO2. U937 cells were differentiated into adherent macrophage-like morphology by exposure to PMA (50 ng/mL) for 48 hrs in complete growth medium. Cell viability was assessed microscopically by trypan blue staining. Cell toxicity was determined by MTT assay as needed. This study was approved by the ethics committee of the Royal Brompton Hospitals, and all subjects gave written informed consent.
# TNFα and IL-8 concentrations in the supernatant of cell cultures were determined by sandwich ELISA according to the manufacturer's instructions (R&D Systems Europe, Abingdon, UK).
# The results were expressed as the mean±SEM. Comparisons of data in two groups were performed using the Student's t test or the Wilcoxon signed rank test. Multiple comparisons were made by one-way ANOVA with post hoc test (Dunnett's) as appropriate. The difference was considered significant at p<0.05. IC50 values (50% inhibitory concentration) for macrolides for production of cytokines or MMP9 were calculated using Prism 4.0 (GraphPad Software Inc., San Diego, Calif.).
# P. aeruginosa PA403 = experiment: MIC by microdilution with PaβN or EGTA, efflux-deleted laboratory strain; assay type: cell-based; conditions: Pseudomonas aeruginosa, read-out: MIC
# Protocol: (§1) The compounds described herein are poor substrates of efflux pumps expressed in P. aeruginosa (PA). MICs of 36 clinical and laboratory strains of PA with known efflux phenotype are measured by microdilution in cation-adjusted Muller-Hinton broth (CA-MHB) or in RPMI medium (commonly used in eukaryotic cell culture). Phe-Arg-β-naphthylamide (PaβN, 50 mg/L) and EGTA 5 mM are used to inhibit efflux pumps and alter OM integrity, respectively. P. aeruginosa strain ATCC PAO1 is used as reference. PA12 is a clinical strain overexpressing the 4 main efflux systems (MexAB, MexCD, MexEF, MexXY), PA403 is a laboratory strain deleted in the genes coding for the 4 efflux systems. A series of reference strains or of clinical isolates for which the expression of genes coding for efflux pumps is known is also used for MICs determinations. MICs are measured by microdilution in MH broth or in RPMI medium (used for eukaryotic cells culture) supplemented with 10% of fetal calf serum, or in MH broth supplemented by increasing amounts of serum. EGTA (5 mM) was used as a chelating agent (disrupting outer membrane integrity) and PaβN (50 mg/L) as an unspecific efflux inhibitor.
# P. aeruginosa (PA) = experiment: MIC by microdilution, 36 clinical and laboratory strains with known efflux phenotype; assay type: cell-based
# Protocol: as §1, with “MICs” for “The compounds described herein are poor substrates of efflux pumps expressed in P. aeruginosa (PA). MICs”
compound,measurement,setting,value
"CC[C@H]1OC(=O)[C@H](C)[C@@H](O[C@H]2C[C@@](C)(OC)[C@@H](O)[C@H](C)O2)[C@H](C)[C@@H](O[C@@H]2O[C@H](C)C[C@H](N(C)C)[C@H]2O)[C@](C)(OC)C[C@@H](C)C(=O)[C@H](C)[C@@H](O)[C@]1(C)O [CLR, clarithromycin]",IC50,"IL-8 (CXCL8) release; PMA-differentiated U937 cells, read-out: IC50, LPS-induced IL-8 (CXCL8) release",506 µM
same,effect on IL-8 production,IL-8 (CXCL8) release; at a higher concentration (333 μM),modest effects
same,MIC,"P. aeruginosa PA403; PA403, P403, CA-MHB, EGTA 5 mM",32 µg/mL
same,MIC,"P. aeruginosa PA403; PA403, P403, CA-MHB, control conditions (CT)",16 µg/mL
same,MIC,"P. aeruginosa PA403; PA403, P403, RPMI, EGTA 5 mM",0.5 µg/mL
same,MIC,"P. aeruginosa PA403; PA403, P403, RPMI, PaβN 50 mg/L",4 µg/mL
same,MIC,"P. aeruginosa PA403; PA403, P403, RPMI, control conditions (CT)",4 µg/mL
same,MIC,"P. aeruginosa (PA); strain 1, efflux AB+, MHB",512 µg/mL
same,MIC,"P. aeruginosa (PA); strain 1, efflux AB+, RPMI",32 µg/mL
same,MIC,"P. aeruginosa (PA); strain 2, efflux CD+, MHB",512 µg/mL
same,MIC,"P. aeruginosa (PA); strain 2, efflux CD+, RPMI",128 µg/mL
same,MIC,"P. aeruginosa (PA); strain 3, efflux EF+, RPMI",16 µg/mL
same,MIC,"P. aeruginosa (PA); strain 4, efflux XY+, MHB",512 µg/mL
same,MIC,"P. aeruginosa (PA); strain 4, efflux XY+, RPMI",32 µg/mL
same,MIC,"P. aeruginosa (PA); strain 11, efflux AB + CD+, MHB",512 µg/mL
same,MIC,"P. aeruginosa (PA); strain 11, efflux AB + CD+, RPMI",16 µg/mL
same,MIC,"P. aeruginosa (PA); strain 12, efflux AB + CD + EF + XY+, MHB",512 µg/mL
same,MIC,"P. aeruginosa (PA); strain 12, efflux AB + CD + EF + XY+, RPMI",16 µg/mL
same,MIC,"P. aeruginosa (PA); strain 16, efflux AB + XY+, MHB",512 µg/mL
same,MIC,"P. aeruginosa (PA); strain 16, efflux AB + XY+, RPMI",64 µg/mL
same,MIC,"P. aeruginosa (PA); strain 21, efflux AB+, MHB",512 µg/mL
same,MIC,"P. aeruginosa (PA); strain 21, efflux AB+, RPMI",64 µg/mL
same,MIC,"P. aeruginosa (PA); strain 22, efflux XY+, MHB",512 µg/mL
same,MIC,"P. aeruginosa (PA); strain 22, efflux XY+, RPMI",32 µg/mL
same,MIC,"P. aeruginosa (PA); strain 40, efflux EF+, RPMI",16 µg/mL
same,MIC,"P. aeruginosa (PA); strain 41, efflux CD+, MHB",512 µg/mL
same,MIC,"P. aeruginosa (PA); strain 41, efflux CD+, RPMI",64 µg/mL
same,MIC,"P. aeruginosa (PA); strain 48, efflux CD + EF + XY+, MHB",512 µg/mL
same,MIC,"P. aeruginosa (PA); strain 48, efflux CD + EF + XY+, RPMI",64 µg/mL
same,MIC,"P. aeruginosa (PA); strain 49, efflux CD + EF + XY+, MHB",512 µg/mL
same,MIC,"P. aeruginosa (PA); strain 49, efflux CD + EF + XY+, RPMI",32 µg/mL
same,MIC,"P. aeruginosa (PA); strain 63, efflux AB + EF + XY+, MHB",512 µg/mL
same,MIC,"P. aeruginosa (PA); strain 63, efflux AB + EF + XY+, RPMI",32 µg/mL
same,MIC,"P. aeruginosa (PA); strain 68, efflux AB + XY+, MHB",512 µg/mL
same,MIC,"P. aeruginosa (PA); strain 68, efflux AB + XY+, RPMI",64 µg/mL
same,MIC,"P. aeruginosa (PA); strain 133, efflux EF + XY+, MHB",512 µg/mL
same,MIC,"P. aeruginosa (PA); strain 133, efflux EF + XY+, RPMI",64 µg/mL
same,MIC,"P. aeruginosa (PA); strain 156, efflux EF + XY+, MHB",512 µg/mL
same,MIC,"P. aeruginosa (PA); strain 156, efflux EF + XY+, RPMI",32 µg/mL
same,MIC,"P. aeruginosa (PA); strain 168B, efflux CD + XY+, MHB",512 µg/mL
same,MIC,"P. aeruginosa (PA); strain 207, efflux AB + EF + XY+, MHB",512 µg/mL
same,MIC,"P. aeruginosa (PA); strain 207, efflux AB + EF + XY+, RPMI",64 µg/mL
same,MIC,"P. aeruginosa (PA); strain 266B, efflux AB + CD+, MHB",512 µg/mL
same,MIC,"P. aeruginosa (PA); strain 266B, efflux AB + CD+, RPMI",64 µg/mL
same,MIC,"P. aeruginosa (PA); strain 333A, efflux AB + EF+, MHB",512 µg/mL
same,MIC,"P. aeruginosa (PA); strain 333A, efflux AB + EF+, RPMI",64 µg/mL
same,MIC,"P. aeruginosa (PA); strain 335, efflux AB + EF+, MHB",512 µg/mL
same,MIC,"P. aeruginosa (PA); strain 335, efflux AB + EF+, RPMI",64 µg/mL
same,MIC,"P. aeruginosa (PA); strain 391, efflux EF−, RPMI",16 µg/mL
same,MIC,"P. aeruginosa (PA); strain 392, efflux CD−, RPMI",16 µg/mL
same,MIC,"P. aeruginosa (PA); strain 394, efflux XY−, MHB",512 µg/mL
same,MIC,"P. aeruginosa (PA); strain 394, efflux XY−, RPMI",32 µg/mL
same,MIC,"P. aeruginosa (PA); strain 395, efflux HI−, RPMI",32 µg/mL
same,MIC,"P. aeruginosa (PA); strain 396, ompH−, MHB",64 µg/mL
same,MIC,"P. aeruginosa (PA); strain 396, ompH−, RPMI",16 µg/mL
same,MIC,"P. aeruginosa (PA); strain 397, efflux AB−, MHB",16 µg/mL
same,MIC,"P. aeruginosa (PA); strain 397, efflux AB−, RPMI",2 µg/mL
same,MIC,"P. aeruginosa (PA); strain 398, efflux CD−, MHB",32 µg/mL
same,MIC,"P. aeruginosa (PA); strain 398, efflux CD−, RPMI",4 µg/mL
same,MIC,"P. aeruginosa (PA); strain 399, efflux AB − EF−, MHB",16 µg/mL
same,MIC,"P. aeruginosa (PA); strain 399, efflux AB − EF−, RPMI",4 µg/mL
same,MIC,"P. aeruginosa (PA); strain 400, efflux XY−, MHB",16 µg/mL
same,MIC,"P. aeruginosa (PA); strain 400, efflux XY−, RPMI",4 µg/mL
same,MIC,"P. aeruginosa (PA); strain 401, ompH−, MHB",8 µg/mL
same,MIC,"P. aeruginosa (PA); strain 401, ompH−, RPMI",2 µg/mL
same,MIC,"P. aeruginosa (PA); strain 403, efflux AB − CD − EF − XY−, MHB",16 µg/mL
same,MIC,"P. aeruginosa (PA); strain 403, efflux AB − CD − EF − XY−, RPMI",4 µg/mL
same,MIC,"P. aeruginosa (PA); strain 405, efflux AB − CD − EF − XY−, MHB",8 µg/mL
same,MIC,"P. aeruginosa (PA); strain 405, efflux AB − CD − EF − XY−, RPMI",4 µg/mL
same,MIC,"P. aeruginosa (PA); strain 434, efflux AB + CD + XY+, MHB",512 µg/mL
same,MIC,"P. aeruginosa (PA); strain 434, efflux AB + CD + XY+, RPMI",128 µg/mL
same,MIC,"P. aeruginosa (PA); strain PAO1, REFERENCE, MHB",512 µg/mL
same,MIC,"P. aeruginosa (PA); strain PAO1, REFERENCE, RPMI",32 µg/mL
